The experiment deals with T1, Nav1.7 (or SCN9A) channel; HEK cells stably transfected with hSCN9A (Homo sapiens, UniProt Q15858).
T1 construct: expressed in transfected cells
The experiment can be described thus: Nav1.7 block, PatchXpress 7000 automated whole-cell voltage clamp, estimated IC50 (EIC50). Type of experiment: cell-based. Particulars: estimated IC50; hSCN9A HEK cells, PatchXpress platform; Examples 815-1040.

T1 sequence (Q15858 whole entry): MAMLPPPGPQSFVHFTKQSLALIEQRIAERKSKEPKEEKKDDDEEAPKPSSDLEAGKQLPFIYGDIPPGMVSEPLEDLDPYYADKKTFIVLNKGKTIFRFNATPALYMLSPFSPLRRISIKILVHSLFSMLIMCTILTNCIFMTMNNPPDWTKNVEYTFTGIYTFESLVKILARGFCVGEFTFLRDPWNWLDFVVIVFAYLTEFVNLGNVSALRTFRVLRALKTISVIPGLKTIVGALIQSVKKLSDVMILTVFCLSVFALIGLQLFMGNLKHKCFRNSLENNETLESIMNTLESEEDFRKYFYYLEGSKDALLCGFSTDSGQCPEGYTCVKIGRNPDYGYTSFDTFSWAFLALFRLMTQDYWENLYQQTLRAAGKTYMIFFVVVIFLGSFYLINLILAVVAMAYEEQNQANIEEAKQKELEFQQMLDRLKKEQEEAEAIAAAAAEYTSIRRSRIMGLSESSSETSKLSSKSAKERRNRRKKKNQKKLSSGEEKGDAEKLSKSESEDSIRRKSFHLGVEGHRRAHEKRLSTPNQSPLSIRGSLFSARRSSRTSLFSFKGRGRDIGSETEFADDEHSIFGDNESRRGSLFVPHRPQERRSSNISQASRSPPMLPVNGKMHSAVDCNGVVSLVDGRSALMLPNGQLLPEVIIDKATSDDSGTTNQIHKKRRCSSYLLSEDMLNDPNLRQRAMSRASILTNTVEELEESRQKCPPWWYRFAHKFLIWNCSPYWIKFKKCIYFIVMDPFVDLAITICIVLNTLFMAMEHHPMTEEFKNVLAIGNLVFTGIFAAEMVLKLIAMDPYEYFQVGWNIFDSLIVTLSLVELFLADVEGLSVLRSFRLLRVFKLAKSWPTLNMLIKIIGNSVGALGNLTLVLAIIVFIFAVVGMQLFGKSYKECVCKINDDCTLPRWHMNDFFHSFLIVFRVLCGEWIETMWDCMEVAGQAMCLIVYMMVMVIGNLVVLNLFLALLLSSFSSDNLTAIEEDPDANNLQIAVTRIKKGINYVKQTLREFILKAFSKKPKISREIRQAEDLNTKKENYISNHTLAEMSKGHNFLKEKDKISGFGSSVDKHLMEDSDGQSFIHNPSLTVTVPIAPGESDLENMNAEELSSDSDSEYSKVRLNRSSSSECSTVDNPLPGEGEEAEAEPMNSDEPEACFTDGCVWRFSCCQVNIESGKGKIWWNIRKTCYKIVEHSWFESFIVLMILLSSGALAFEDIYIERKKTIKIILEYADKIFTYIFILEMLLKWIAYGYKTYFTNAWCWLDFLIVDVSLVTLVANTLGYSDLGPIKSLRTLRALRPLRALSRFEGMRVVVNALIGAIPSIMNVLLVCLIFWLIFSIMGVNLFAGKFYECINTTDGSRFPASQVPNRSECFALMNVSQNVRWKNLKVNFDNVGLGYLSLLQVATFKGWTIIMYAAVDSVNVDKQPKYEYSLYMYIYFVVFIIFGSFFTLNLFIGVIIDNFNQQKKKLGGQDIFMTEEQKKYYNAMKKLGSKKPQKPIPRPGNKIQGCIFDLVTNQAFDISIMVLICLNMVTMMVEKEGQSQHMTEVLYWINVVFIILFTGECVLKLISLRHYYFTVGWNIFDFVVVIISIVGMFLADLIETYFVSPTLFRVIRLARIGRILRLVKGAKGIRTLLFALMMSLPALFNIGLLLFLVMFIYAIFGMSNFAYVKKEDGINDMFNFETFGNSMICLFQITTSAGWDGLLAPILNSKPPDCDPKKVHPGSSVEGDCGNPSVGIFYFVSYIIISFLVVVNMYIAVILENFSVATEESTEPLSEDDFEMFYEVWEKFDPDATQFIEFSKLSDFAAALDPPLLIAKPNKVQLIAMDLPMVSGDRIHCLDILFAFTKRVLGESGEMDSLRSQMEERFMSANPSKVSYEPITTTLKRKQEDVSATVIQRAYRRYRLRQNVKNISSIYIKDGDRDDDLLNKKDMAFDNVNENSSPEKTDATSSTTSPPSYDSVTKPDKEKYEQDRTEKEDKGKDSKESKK

As a reminder, the IC50 is the concentration needed to halve the response being measured. As to `O=S(=O)(Nc1ncccn1)c1cc(Cl)c(Oc2ccc(OC(F)(F)F)cc2-c2ccnnc2)cc1F` [Example 945, 5-chloro-2-fluoro-4-[2-pyridazin-4-yl-4-(trifluoromethoxy)phenoxy]-N-pyrimidin-2-ylbenzenesulfonamide], the IC50 is 99 nM.

On to `N#Cc1cc(S(=O)(=O)Nc2nncs2)ccc1Oc1ccc(C(F)(F)F)cc1-c1ccnnc1` [Example 946, 3-cyano-4-[2-pyridazin-4-yl-4-(trifluoromethyl)phenoxy]-N-1,3,4-thiadiazol-2-ylbenzenesulfonamide], for which the IC50 is 230 nM.

Regarding `O=S(=O)(Nc1nncs1)c1cc(Cl)c(Oc2cc(C(F)(F)F)c(F)cc2-c2ccnnc2)cc1F` [Example 947, 5-chloro-2-fluoro-4-[4-fluoro-2-pyridazin-4-yl-5-(trifluoromethyl)phenoxy]-N-1,3,4-thiadiazol-2-ylbenzenesulfonamide], the IC50 was 23 nM.

For `N#Cc1cc(S(=O)(=O)Nc2ncns2)ccc1Oc1cc(C(F)(F)F)c(F)cc1-c1ccnnc1` [Example 948, 3-cyano-4-[4-fluoro-2-pyridazin-4-yl-5-(trifluoromethyl)phenoxy]-N-1,2,4-thiadiazol-5-ylbenzenesulfonamide], the IC50 was 11 nM.

Turning to `Nc1cc(-c2cc(F)ccc2Oc2cc(F)c(S(=O)(=O)Nc3ncccn3)cc2Cl)ccn1` [Example 949, 4-[2-(2-aminopyridin-4-yl)-4-fluorophenoxy]-5-chloro-2-fluoro-N-pyrimidin-2-ylbenzenesulfonamide], the IC50 is 87 nM.

With `Cn1nccc1-c1cc(Cl)ccc1Oc1ccc(S(=O)(=O)Nc2ncns2)cn1` [Example 950, 6-[4-chloro-2-(1-methyl-1H-pyrazol-5-yl)phenoxy]-N-1,2,4-thiadiazol-5-ylpyridine-3-sulfonamide], the IC50 is 2700 nM.

As to `N#Cc1ccc(-c2ccnnc2)c(Oc2cc(F)c(S(=O)(=O)Nc3ncns3)cc2Cl)c1` [Example 951, 5-chloro-4-(5-cyano-2-pyridazin-4-ylphenoxy)-2-fluoro-N-1,2,4-thiadiazol-5-ylbenzenesulfonamide], the IC50 was 40 nM.

With `N#Cc1cc(S(=O)(=O)Nc2cscn2)ccc1Oc1ccc(C(F)(F)F)cc1-c1ccnnc1` [Example 953, 3-cyano-4-[2-pyridazin-4-yl-4-(trifluoromethyl)phenoxy]-N-1,3-thiazol-4-ylbenzenesulfonamide], the IC50 was 110 nM.

As to `O=S(=O)(Nc1cscn1)c1cc(F)c(Oc2ccc(C(F)(F)F)cc2-c2ccnnc2)cc1F` [Example 954, 2,5-difluoro-4-[2-pyridazin-4-yl-4-(trifluoromethyl)phenoxy]-N-1,3-thiazol-4-ylbenzenesulfonamide], the IC50 is 240 nM.

As for `Cn1nccc1-c1cc(Cl)ccc1Oc1ccc(S(=O)(=O)Nc2ncccn2)cc1Cl` [Example 955, 3-chloro-4-[4-chloro-2-(1-methyl-1H-pyrazol-5-yl)phenoxy]-N-pyrimidin-2-ylbenzenesulfonamide], the IC50 was 76 nM.

As to `O=S(=O)(Nc1nncs1)c1cc(Cl)c(Oc2ccc(Cl)c(F)c2-c2ccnnc2)cc1F` [Example 956, 5-chloro-4-(4-chloro-3-fluoro-2-pyridazin-4-ylphenoxy)-2-fluoro-N-1,3,4-thiadiazol-2-ylbenzenesulfonamide], the IC50 is 130 nM.

`N#Cc1cc(S(=O)(=O)Nc2ncns2)ccc1Oc1cc(OC(F)(F)F)ccc1-c1ccnnc1` [Example 957, 3-cyano-4-[2-pyridazin-4-yl-5-(trifluoromethoxy)phenoxy]-N-1,2,4-thiadiazol-5-ylbenzenesulfonamide]: the IC50 was 22 nM.

Turning to `N#Cc1cc(S(=O)(=O)Nc2ncns2)ccc1Oc1cc(F)c(OC(F)(F)F)cc1-c1ccnnc1` [Example 958, 3-cyano-4-[5-fluoro-2-pyridazin-4-yl-4-(trifluoromethoxy)phenoxy]-N-1,2,4-thiadiazol-5-ylbenzenesulfonamide], the IC50 was 5.9 nM.

Consider `N#Cc1cc(S(=O)(=O)Nc2ncns2)ccc1Oc1ccc(C(F)(F)F)cc1-c1ccncc1` [Example 960, 3-cyano-4-[2-pyridin-4-yl-4-(trifluoromethyl)phenoxy]-N-1,2,4-thiadiazol-5-ylbenzenesulfonamide], for which the IC50 was 4 nM.

As for `Cc1nocc1-c1cc(Cl)ccc1Oc1ccc(S(=O)(=O)Nc2ncns2)cc1C#N` [Example 961, 4-[4-chloro-2-(3-methylisoxazol-4-yl)phenoxy]-3-cyano-N-1,2,4-thiadiazol-5-ylbenzenesulfonamide], the IC50 was 7.9 nM.

As to `N#Cc1cc(S(=O)(=O)Nc2cscn2)ccc1Oc1ccc(OC(F)(F)F)cc1-c1ccnn1C1CNC1` [Example 962, 4-[2-(1-azetidin-3-yl-1H-pyrazol-5-yl)-4-(trifluoromethoxy)phenoxy]-3-cyano-N-1,3-thiazol-4-ylbenzenesulfonamide], the IC50 was 9.9 nM.

In the case of `O=S(=O)(Nc1nncs1)c1cc(Cl)c(Oc2cc(F)c(OC(F)(F)F)cc2-c2ccnnc2)cc1F` [Example 963, 5-chloro-2-fluoro-4-[5-fluoro-2-pyridazin-4-yl-4-(trifluoromethoxy)phenoxy]-N-1,3,4-thiadiazol-2-ylbenzenesulfonamide], the half-inhibitory concentration (IC50) is 15 nM.

As to `N#Cc1cc(S(=O)(=O)Nc2ncns2)ccc1Oc1cc(OC(F)(F)F)c(F)cc1-c1ccnnc1` [Example 964, 3-cyano-4-[4-fluoro-2-pyridazin-4-yl-5-(trifluoromethoxy)phenoxy]-N-1,2,4-thiadiazol-5-ylbenzenesulfonamide], the IC50 was 21 nM.

For the compound `O=S(=O)(Nc1nncs1)c1cc(Cl)c(Oc2cc(OC(F)(F)F)c(F)cc2-c2ccnnc2)cc1F` [Example 965, 5-chloro-2-fluoro-4-[4-fluoro-2-pyridazin-4-yl-5-(trifluoromethoxy)phenoxy]-N-1,3,4-thiadiazol-2-ylbenzenesulfonamide], the IC50 was 25 nM.

Regarding `O=S(=O)(Nc1nncs1)c1cc(Cl)c(Oc2cc(OC(F)(F)F)ccc2-c2ccnnc2)cc1F` [Example 966, 5-chloro-2-fluoro-4-[2-pyridazin-4-yl-5-(trifluoromethoxy)phenoxy]-N-1,3,4-thiadiazol-2-ylbenzenesulfonamide], the IC50 was 40 nM.

Regarding `N#Cc1cc(S(=O)(=O)Nc2ncns2)ccc1Oc1ccc(Cl)cc1-c1cnco1` [Example 967, 4-[4-chloro-2-(1,3-oxazol-5-yl)phenoxy]-3-cyano-N-1,2,4-thiadiazol-5-ylbenzenesulfonamide], the IC50 was 27 nM.

As for `CN1CC(n2nccc2-c2cc(Cl)ccc2Oc2ncc(S(=O)(=O)Nc3ncns3)cc2Cl)C1` [Example 968, 5-chloro-6-{4-chloro-2-[1-(1-methylazetidin-3-yl)-1H-pyrazol-5-yl]phenoxy}-N-1,2,4-thiadiazol-5-ylpyridine-3-sulfonamide], the IC50 is 2000 nM.

As to `N#Cc1cc(S(=O)(=O)Nc2cscn2)ccc1Oc1ccc(C(F)(F)F)cc1-c1ccnn1C1CNC1` [Example 969, 4-[2-(1-azetidin-3-yl-1H-pyrazol-5-yl)-4-(trifluoromethyl)phenoxy]-3-cyano-N-1,3-thiazol-4-ylbenzenesulfonamide], the IC50 was 4.1 nM.

For the compound `O=S(=O)(Nc1ncns1)c1cc(F)c(Oc2ccc(Cl)cc2-c2cnco2)cc1F` [Example 970, 4-[4-chloro-2-(1,3-oxazol-5-yl)phenoxy]-2,5-difluoro-N-1,2,4-thiadiazol-5-ylbenzenesulfonamide], the IC50 was 17 nM.
